Laboratory results taken from patent US12398140B2, “Substituted pyrrolo [2,3-d]pyrimidines for treating familial dysautonomia” (PTC THERAPEUTICS, INC., priority 2019, dated 2025).

Tested on: Elongator complex protein 1 (ELPI, also referred to as IKBKAP)
Assay: IKBKAP-HTRF assay (IKBKAP protein in lysates of FD patient-derived fibroblasts)
Assay type: cell-based, human
Details: FD patient-derived fibroblasts GM04589, 48 hours, 7-point concentration curve
How it was run: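 FD patient-derived fibroblasts (10,000/well) treated 48 h at 37 °C with compound across a 7-point 3.16-fold series, in triplicate; lysates assayed by sandwich HTRF with two anti-IKAP antibodies, overnight at 4 °C, 665/620 nm read. MFI = ΔF over vehicle; EC2x = concentration doubling IKBKAP protein versus DMSO.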

Row | SMILES | EC2x for IKBKAP protein expression (concentration producing two times the amount of IKBKAP protein vs DMSO vehicle control) | MFI (maximum fold increase in IKBKAP protein abundance relative to the vehicle control)
1 | C[C@H](N)Cc1[nH]c2nc(Cl)nc(NCc3nccs3)c2c1F.Cl [Cpd 36, 6-[(2S)-2-aminopropyl]-2-chloro-5-fluoro-N-[(1,3-thiazol-2-yl)methyl]-7H-pyrrolo[2,3-d]pyrimidin-4-amine hydrochloride] | **** (between >0.005 μM and ≤0.02 μM is indicated by four stars (****)) | ***** (>4.9 is indicated by five stars (*****))
2 | C[C@H](N)Cc1c(F)c2c(NCc3nccs3)nc(Cl)nc2n1C.Cl [Cpd 38, 6-[(2S)-2-aminopropyl]-2-chloro-5-fluoro-7-methyl-N-[(1,3-thiazol-2-yl)methyl]-7H-pyrrolo[2,3-d]pyrimidin-4-amine hydrochloride] | *** (between >0.02 μM and ≤0.5 μM is indicated by three stars (***)) | ***** (>4.9 is indicated by five stars (*****))
3 | CCCCc1c(C[C@H](C)N)[nH]c2nc(Cl)nc(NCc3ccco3)c12.Cl [Cpd 28, 6-[(2S)-2-aminopropyl]-5-butyl-2-chloro-N-[(furan-2-yl)methyl]-7H-pyrrolo[2,3-d]pyrimidin-4-amine hydrochloride] | * (An EC2x>1 μM is indicated by one star (*)) | * (An MFI≤1.9 is indicated by one star (*))
4 | C[C@H](N)Cc1cc2c(NCc3ccncc3F)nc(Cl)nc2[nH]1.Cl.Cl [Cpd 31, 6-[(2S)-2-aminopropyl]-2-chloro-N-[(3-fluoropyridin-4-yl)methyl]-7H-pyrrolo[2,3-d]pyrimidin-4-amine dihydrochloride] | **** (between >0.005 μM and ≤0.02 μM is indicated by four stars (****)) | ***** (>4.9 is indicated by five stars (*****))
5 | CC(C)(C)[C@H](N)Cc1cc2c(NCc3ccco3)nc(Cl)nc2[nH]1.Cl [Cpd 29, 6-[(2R)-2-amino-3,3-dimethylbutyl]-2-chloro-N-[(furan-2-yl)methyl]-7H-pyrrolo[2,3-d]pyrimidin-4-amine hydrochloride] | *** (between >0.02 μM and ≤0.5 μM is indicated by three stars (***)) | **** (between >3.9 and ≤4.9 is indicated by four stars (****))
6 | Cc1c(C[C@H](C)N)n(C)c2nc(Cl)nc(NCc3ccco3)c12.Cl [Cpd 35, 6-[(2S)-2-aminopropyl]-2-chloro-N-[(furan-2-yl)methyl]-5,7-dimethyl-7H-pyrrolo[2,3-d]pyrimidin-4-amine hydrochloride] | **** (between >0.005 μM and ≤0.02 μM is indicated by four stars (****)) | ***** (>4.9 is indicated by five stars (*****))
7 | C[C@H](N)Cc1cc2c(NCc3cscn3)nc(Cl)nc2[nH]1 [Cpd 61, 6-[(2S)-2-aminopropyl]-2-chloro-N-[(1,3-thiazol-4-yl)methyl]-7H-pyrrolo[2,3-d]pyrimidin-4-amine] | * (An EC2x>1 μM is indicated by one star (*)) | * (An MFI≤1.9 is indicated by one star (*))
8 | CC[C@H](C)[C@H](N)Cc1cc2c(NCc3ccco3)nc(Cl)nc2[nH]1.Cl [Cpd 32, 6-[(2R,3S)-2-amino-3-methylpentyl]-2-chloro-N-[(furan-2-yl)methyl]-7H-pyrrolo[2,3-d]pyrimidin-4-amine hydrochloride] | **** (between >0.005 μM and ≤0.02 μM is indicated by four stars (****)) | ***** (>4.9 is indicated by five stars (*****))
9 | COc1ccc(-n2c(C[C@H](C)N)c(F)c3c(NCc4ccco4)nc(Cl)nc32)cc1.Cl [Cpd 46, 6-[(2S)-2-aminopropyl]-2-chloro-5-fluoro-N-[(furan-2-yl)methyl]-7-(4-methoxyphenyl)-7H-pyrrolo[2,3-d]pyrimidin-4-amine hydrochloride] | * (An EC2x>1 μM is indicated by one star (*)) | * (An MFI≤1.9 is indicated by one star (*))
10 | CN(C)CCc1cc2c(NCc3ccco3)nc(Cl)nc2[nH]1 [Cpd 7, 2-chloro-6-[2-(dimethylamino)ethyl]-N-[(furan-2-yl)methyl]-7H-pyrrolo[2,3-d]pyrimidin-4-amine] | * (An EC2x>1 μM is indicated by one star (*)) | * (An MFI≤1.9 is indicated by one star (*))
11 | CC[C@H](N)Cc1[nH]c2nc(Cl)nc(NCc3ccco3)c2c1Cl.Cl [Cpd 21, 6-[(2S)-2-aminobutyl]-2,5-dichloro-N-[(furan-2-yl)methyl]-7H-pyrrolo[2,3-d]pyrimidin-4-amine hydrochloride] | **** (between >0.005 μM and ≤0.02 μM is indicated by four stars (****)) | **** (between >3.9 and ≤4.9 is indicated by four stars (****))
12 | CNCCc1[nH]c2nc(Cl)nc(NCc3ccco3)c2c1F.Cl [Cpd 6, 2-chloro-5-fluoro-N-[(furan-2-yl)methyl]-6-[2-(methylamino)ethyl]-7H-pyrrolo[2,3-d]pyrimidin-4-amine hydrochloride] | *** (between >0.02 μM and ≤0.5 μM is indicated by three stars (***)) | ***** (>4.9 is indicated by five stars (*****))
13 | C[C@H](N)Cc1[nH]c2nc(Cl)nc(NCc3ccccc3)c2c1F.Cl [Cpd 50, 6-[(2S)-2-aminopropyl]-N-benzyl-2-chloro-5-fluoro-7H-pyrrolo[2,3-d]pyrimidin-4-amine hydrochloride] | *** (between >0.02 μM and ≤0.5 μM is indicated by three stars (***)) | *** (between >2.9 and ≤3.9 is indicated by three stars (***))
14 | C[C@H](N)Cc1c(Cl)c2c(NCc3ccco3)nc(Cl)nc2n1C.Cl [Cpd 23, 6-[(2S)-2-aminopropyl]-2,5-dichloro-N-[(furan-2-yl)methyl]-7-methyl-7H-pyrrolo[2,3-d]pyrimidin-4-amine hydrochloride] | **** (between >0.005 μM and ≤0.02 μM is indicated by four stars (****)) | ***** (>4.9 is indicated by five stars (*****))
15 | C[C@H](N)Cc1[nH]c2nc(Cl)nc(NCc3ccco3)c2c1Br.Cl [Cpd 19, 6-[(2S)-2-aminopropyl]-5-bromo-2-chloro-N-[(furan-2-yl)methyl]-7H-pyrrolo[2,3-d]pyrimidin-4-amine hydrochloride] | **** (between >0.005 μM and ≤0.02 μM is indicated by four stars (****)) | **** (between >3.9 and ≤4.9 is indicated by four stars (****))
16 | CC(C)[C@H](N)Cc1[nH]c2nc(Cl)nc(NCc3ccco3)c2c1F.Cl [Cpd 14, 6-[(2R)-2-amino-3-methylbutyl]-2-chloro-5-fluoro-N-[(furan-2-yl)methyl]-7H-pyrrolo[2,3-d]pyrimidin-4-amine hydrochloride] | **** (between >0.005 μM and ≤0.02 μM is indicated by four stars (****)) | ***** (>4.9 is indicated by five stars (*****))
17 | CCn1c(C[C@H](C)N)c(F)c2c(NCc3ccco3)nc(Cl)nc21.Cl [Cpd 42, 6-[(2S)-2-aminopropyl]-2-chloro-7-ethyl-5-fluoro-N-[(furan-2-yl)methyl]-7H-pyrrolo[2,3-d]pyrimidin-4-amine hydrochloride] | *** (between >0.02 μM and ≤0.5 μM is indicated by three stars (***)) | ** (between >1.9 and ≤2.9 is indicated by two stars (**))
18 | CC[C@H](N)Cc1[nH]c2nc(Cl)nc(NCc3cccs3)c2c1F.Cl [Cpd 58, 6-[(2S)-2-aminobutyl]-2-chloro-5-fluoro-N-[(thiophen-2-yl)methyl]-7H-pyrrolo[2,3-d]pyrimidin-4-amine hydrochloride] | *** (between >0.02 μM and ≤0.5 μM is indicated by three stars (***)) | **** (between >3.9 and ≤4.9 is indicated by four stars (****))
19 | CNC(C)Cc1cc2c(NCc3ccco3)nc(Cl)nc2[nH]1.Cl (stereo not shown) [Cpd 4, 2-chloro-N-[(furan-2-yl)methyl]-6-[2-(methylamino)propyl]-7H-pyrrolo[2,3-d]pyrimidin-4-amine hydrochloride] | *** (between >0.02 μM and ≤0.5 μM is indicated by three stars (***)) | **** (between >3.9 and ≤4.9 is indicated by four stars (****))
20 | C[C@H](N)Cc1[nH]c2nc(Cl)nc(NCc3ccco3)c2c1F.Cl [Cpd 10, 6-[(2S)-2-aminopropyl]-2-chloro-5-fluoro-N-[(furan-2-yl)methyl]-7H-pyrrolo[2,3-d]pyrimidin-4-amine hydrochloride] | **** (between >0.005 μM and ≤0.02 μM is indicated by four stars (****)) | ***** (>4.9 is indicated by five stars (*****))
